Counter-ions that a name gives are not always drawn.
Assay: physchem
Conditions: pH 2.7

Row | Structure (SMILES) | log p
1 | CN(C)C=CC(=O)c1cc(Cl)cs1 [1-(4-Chloro-2-thienyl)-3-(dimethylamino)prop-2-en-1-one] | 1.86
2 | CSc1nccc(CC(=O)c2ccc(Cl)s2)n1 [1-(5-Chloro-2-thienyl)-2-[2-(methylsulfanyl)pyrimidin-4-yl]ethanone] | 2.98
3 | O=C(Cc1ccnc(Cl)c1)c1ccc(Cl)s1 [1-(5-chloro-2-thienyl)-2-(2-chloropyridin-4-yl)ethanone] | 2.94
4 | O=C(Cc1ccncc1)c1ccc(Cl)s1 [1-(5-chloro-2-thienyl)-2-(pyridin-4-yl)ethanone] | 1.17
5 | CN(C)C=C(C(=O)c1ccc(Cl)s1)c1ccnc(Cl)c1 [1-(5-chloro-2-thienyl)-3-(dimethylamino)-2-(2-chloropyridin-4-yl)prop-2-en-1-one] | 2.58
6 | CN(C)C=C(C(=O)c1ccc(Cl)s1)c1ccncc1 [1-(5-chloro-2-thienyl)-3-(dimethylamino)-2-(pyridin-4-yl)prop-2-en-1-one] | 1.07
7 | CCn1ccc(-c2cccs2)n1 [1-Ethyl-3-(2-thienyl)-1H-pyrazole] | 2.14
8 | CCn1ccc(-c2cc(C)cs2)n1 [1-Ethyl-3-(4-methyl-2-thienyl)-1H-pyrazole] | 2.64
9 | CCn1cc(I)c(-c2cccs2)n1 [1-Ethyl-4-iodo-3-(2-thienyl)-1H-pyrazole] | 3.13
10 | CCn1cc(I)c(-c2cc(C)cs2)n1 [1-Ethyl-4-iodo-3-(4-methyl-2-thienyl)-1H-pyrazole] | 3.7
11 | CCn1nccc1-c1cccs1 [1-Ethyl-5-(2-thienyl)-1H-pyrazole] | 2.18
12 | CCn1nccc1-c1cc(C)cs1 [1-Ethyl-5-(4-methyl-2-thienyl)-1H-pyrazole] | 2.68
13 | CC(C)n1ccc(-c2cccs2)n1 [1-Isopropyl-3-(2-thienyl)-1H-pyrazole] | 2.66
14 | Cc1csc(-c2ccn(C(C)C)n2)c1 [1-Isopropyl-3-(4-methyl-2-thienyl)-1H-pyrazole] | 3.14
15 | CC(C)n1nccc1-c1cccs1 [1-Isopropyl-5-(2-thienyl)-1H-pyrazole] | 2.69
16 | Cc1csc(-c2ccnn2C(C)C)c1 [1-Isopropyl-5-(4-methyl-2-thienyl)-1H-pyrazole] | 3.18
17 | CCCc1cc(-c2sccc2C)nn1C [1-Methyl-3-(3-methyl-2-thienyl)-5-propyl-1H-pyrazole] | 3.34
18 | Cc1csc(-c2ccn(C)n2)c1 [1-Methyl-3-(4-methyl-2-thienyl)-1H-pyrazole] | 2.14
19 | CCCc1cc(-c2cccs2)n(C)n1 [1-Methyl-3-propyl-5-(2-thienyl)-1H-pyrazole] | 2.9
20 | CCCc1cc(-c2sccc2C)n(C)n1 [1-Methyl-5-(3-methyl-2-thienyl)-3-propyl-1H-pyrazole] | 3.34
21 | Cc1csc(-c2ccnn2C)c1 [1-Methyl-5-(4-methyl-2-thienyl)-1H-pyrazole] | 2.26
22 | CCCc1cc(-c2cccs2)nn1C [1-Methyl-5-propyl-3-(2-thienyl)-1H-pyrazole] | 2.9
23 | CCCn1ccc(-c2cccs2)n1 [1-Propyl-3-(2-thienyl)-1H-pyrazole] | 2.58
24 | CCCn1nccc1-c1cccs1 [1-Propyl-5-(2-thienyl)-1H-pyrazole] | 2.64

Row | Structure (SMILES) | log p
25 | CCC(C)n1ccc(-c2cccs2)n1 (stereo not shown) [1-sec-Butyl-3-(2-thienyl)-1H-pyrazole] | 3.1
26 | CCC(C)n1cc(I)c(-c2cc(Cl)cs2)n1 (stereo not shown) [1-sec-Butyl-3-(4-chloro-2-thienyl)-4-iodo-1H-pyrazole] | 5.01
27 | CCC(C)n1ccc(-c2cc(C)cs2)n1 (stereo not shown) [1-sec-Butyl-3-(4-methyl-2-thienyl)-1H-pyrazole] | 3.63
28 | CCC(C)n1cc(I)c(-c2cccs2)n1 (stereo not shown) [1-sec-Butyl-4-iodo-3-(2-thienyl)-1H-pyrazole] | 4.12
29 | CCC(C)n1cc(I)c(-c2cc(C)cs2)n1 (stereo not shown) [1-sec-Butyl-4-iodo-3-(4-methyl-2-thienyl)-1H-pyrazole] | 4.79
30 | CCC(C)n1ncc(I)c1-c1cccs1 (stereo not shown) [1-sec-Butyl-4-iodo-5-(2-thienyl)-1H-pyrazole] | 4.12
31 | CCC(C)n1nccc1-c1cccs1 (stereo not shown) [1-sec-Butyl-5-(2-thienyl)-1H-pyrazole] | 2.97
32 | CCC(C)n1ncc(I)c1-c1cc(Cl)cs1 (stereo not shown) [1-sec-Butyl-5-(4-chloro-2-thienyl)-4-iodo-1H-pyrazole] | 4.72
33 | CCC(C)n1nccc1-c1cc(C)cs1 (stereo not shown) [1-sec-Butyl-5-(4-methyl-2-thienyl)-1H-pyrazole] | 3.65
34 | CC(=O)c1ccc(-c2n[nH]cc2-c2ccncc2)s1 [1-{5-[4-(pyridin-4-yl)-1H-pyrazol-3-yl]-2-thienyl}ethanone hydrochloride] | 0.62
35 | O=C(Cc1ccnc(Cl)n1)c1ccc(Cl)s1 [2-(2-Chloropyrimidin-4-yl)-1-(5-chloro-2-thienyl)ethanone] | 2.6
36 | CCC(C)n1cc(-c2ccnc(Br)c2)c(-c2ccc(Cl)s2)n1 (stereo not shown) [2-Bromo-4-[1-sec-butyl-3-(5-chloro-2-thienyl)-1H-pyrazol-4-yl]pyridine] | 5.03
37 | CC(C)Cn1cc(-c2ccnc(Cl)c2)c(-c2ccc(Cl)s2)n1 [2-Chloro-4-[1-isobutyl-3-(5-chloro-2-thienyl)-1H-pyrazol-4-yl]pyridine] | 4.85
38 | CC(C)Cn1ncc(-c2ccnc(Cl)c2)c1-c1ccc(Cl)s1 [2-Chloro-4-[1-isobutyl-5-(5-chloro-2-thienyl)-1H-pyrazol-4-yl]pyridine] | 4.62
39 | CCC(C)n1cc(-c2ccnc(Cl)c2)c(-c2ccc(Cl)s2)n1 (stereo not shown) [2-Chloro-4-[1-sec-butyl-3-(5-chloro-2-thienyl)-1H-pyrazol-4-yl]pyridine] | 4.9
40 | Clc1cc(-c2c[nH]nc2-c2ccc(Cl)s2)ccn1 [2-Chloro-4-[3-(5-chloro-2-thienyl)-1H-pyrazol-4-yl]pyridine] | 2.75
41 | CCC(C)n1cc(-c2ccnc(C#N)c2)c(-c2ccc(Cl)s2)n1 (stereo not shown) [2-Cyano-4-[1-sec-butyl-3-(5-chloro-2-thienyl)-1H-pyrazol-4-yl]pyridine] | 4.41
42 | C#CCNc1cc(-c2cn(CC(C)C)nc2-c2ccc(Cl)s2)ccn1 [2-Propargylamino-4-[1-isobutyl-3-(5-chloro-2-thienyl)-1H-pyrazol-4-yl]pyridine] | 2.3
43 | CC(C)n1ccc(-c2cc(Br)c(Br)s2)n1 [3-(4,5-Dibromo-2-thienyl)-1-isopropyl-1H-pyrazole] | 4.64
44 | Brc1cc(-c2cc[nH]n2)sc1Br [3-(4,5-Dibromo-2-thienyl)-1H-pyrazole] | 2.74
45 | CCn1ccc(-c2cc(Br)cs2)n1 [3-(4-Bromo-2-thienyl)-1-ethyl-1H-pyrazole] | 3.04
46 | CC(C)n1ccc(-c2cc(Br)cs2)n1 [3-(4-Bromo-2-thienyl)-1-isopropyl-1H-pyrazole] | 3.61
47 | Brc1csc(-c2cc[nH]n2)c1 [3-(4-Bromo-2-thienyl)-1H-pyrazole] | 1.99
48 | CCn1cc(I)c(-c2cc(Cl)cs2)n1 [3-(4-Chloro-2-thienyl)-1-ethyl-4-iodo-1H-pyrazole] | 4.02

Row | Structure (SMILES) | log p
49 | Clc1csc(-c2cc[nH]n2)c1 [3-(4-Chloro-2-thienyl)-1H-pyrazole] | 1.91
50 | CCCn1ccc(-c2cc(C)cs2)n1 [3-(4-Methyl-2-thienyl)-1-propyl-1H-pyrazole] | 3.07
51 | Cc1csc(-c2cc[nH]n2)c1 [3-(4-Methyl-2-thienyl)-1H-pyrazole] | 1.72
52 | Clc1csc(-c2n[nH]cc2I)c1 [3-(4-chloro-2-thienyl)-4-iodo-1H-pyrazole] | 2.68
53 | N#Cc1[nH]nc(-c2ccc(Cl)s2)c1-c1ccncc1 [3-(5-Chloro-2-thienyl)-4-(pyridin-4-yl)-1H-pyrazole-5-carbonitrile] | 1.53
54 | CN(C)C=CC(=O)c1cccs1 [3-(Dimethylamino)-1-(2-thienyl)prop-2-en-1-one] | 1.33
55 | Cc1csc(C(=O)C=CN(C)C)c1 [3-(Dimethylamino)-1-(4-methyl-2-thienyl)prop-2-en-1-one] | 1.65
56 | CC(C)Nc1nccc(C(=CN(C)C)C(=O)c2ccc(Cl)s2)n1 [3-(Dimethylamino)-1-(5-chloro-2-thienyl)-2-[2-(isopropylamino)pyrimidin-4-yl]prop-2-en-1-one] | 1.67
57 | CSc1nccc(C(=CN(C)C)C(=O)c2ccc(Cl)s2)n1 [3-(Dimethylamino)-1-(5-chloro-2-thienyl)-2-[2-(methylsulfanyl)pyrimidin-4-yl]prop-2-en-1-one] | 2.27
58 | Cc1c(Br)c(-c2ccc(Cl)s2)nn1C [4-Bromo-3-(5-chloro-2-thienyl)-1,5-dimethyl-1H-pyrazole] | 3.92
59 | CCn1nc(-c2ccc(Cl)s2)c(Br)c1C [4-Bromo-3-(5-chloro-2-thienyl)-1-ethyl-5-methyl-1H-pyrazole] | 4.54
60 | Cc1c(Br)c(-c2ccc(Cl)s2)nn1C(C)C [4-Bromo-3-(5-chloro-2-thienyl)-1-isopropyl-5-methyl-1H-pyrazole] | 5.35
61 | CC(C)n1cc(I)c(-c2cccs2)n1 [4-Iodo-1-isopropyl-3-(2-thienyl)-1H-pyrazole] | 3.71
62 | Cc1csc(-c2nn(C(C)C)cc2I)c1 [4-Iodo-1-isopropyl-3-(4-methyl-2-thienyl)-1H-pyrazole] | 4.26
63 | CC(C)n1ncc(I)c1-c1cccs1 [4-Iodo-1-isopropyl-5-(2-thienyl)-1H-pyrazole] | 3.66
64 | CCCc1c(I)c(-c2sccc2C)nn1C [4-Iodo-1-methyl-3-(3-methyl-2-thienyl)-5-propyl-1H-pyrazole] | 4.03
65 | Cc1csc(-c2nn(C)cc2I)c1 [4-Iodo-1-methyl-3-(4-methyl-2-thienyl)-1H-pyrazole] | 3.18
66 | CCCc1nn(C)c(-c2sccc2C)c1I [4-Iodo-1-methyl-5-(3-methyl-2-thienyl)-3-propyl-1H-pyrazole] | 4.27
67 | CCCc1c(I)c(-c2cccs2)nn1C [4-Iodo-1-methyl-5-propyl-3-(2-thienyl)-1H-pyrazole] | 3.92
68 | CCCn1cc(I)c(-c2cccs2)n1 [4-Iodo-1-propyl-3-(2-thienyl)-1H-pyrazole] | 3.65
69 | Ic1c[nH]nc1-c1cccs1 [4-Iodo-3-(2-thienyl)-1H-pyrazole] | 2.1
70 | CCCn1cc(I)c(-c2cc(C)cs2)n1 [4-Iodo-3-(4-methyl-2-thienyl)-1-propyl-1H-pyrazole] | 4.2

From patent US8685974B2 (Bayer CropScience AG, priority 2009, dated 2014)
